The results in this text go back to patent US20250249025A1, “DRUG DELIVERY CARRIER UTILIZING PROPERTY OF D-ALLOSE BEING UPTAKEN BY CANCER CELL, DRUG DELIVERY METHOD, AND COMPOSITION FOR TREATING RENAL CELL CARCINOMA” (NATIONAL UNIVERSITY CORPORATION KAGAWA UNIVERSITY, priority 2019, published 2025).

For data set [1], the system named is human prostate carcinoma cell line PC-3. Kind of data set: Rare sugar uptake experiment, sugar content in disrupted cell suspension of PC-3. In kind it is cell-based. The procedure: An uptake amount of a rare sugar, which had been added to a medium, into carcinoma cells was analyzed using the cell lines of three types of cancers. As the rare sugar, four kinds, that is, D-allose, D-allulose (D-psicose), L-allulose (L-psicose), and allitol were used, while D-glucose and fructose were used as a monosaccharide which was not a rare sugar.
Cells of each of the cell lines were cultured in RPMI-1640 media and during culturing, six sugars were each added to the resulting media and cultured. After culturing, an amount of each sugar taken up into the cells was analyzed. The medium to which no sugar was added during culturing was used as a control.
Used were human bladder carcinoma cell lines (RT112, 253), and J82), human prostatic carcinoma cell lines (LNCa, Du145, and PC-3), and human renal cell carcinoma cell lines (ACHN, Caki-I, and Caki-II).
After cells were cultured in RPMI-1640 (2000 mg D-glucose/L) media, the above monosaccharides and rare sugars were added to the resulting media, respectively. Described specifically, they were following seven combinations: RPMI-1640 alone (control), RPMI-1640+D-glucose, RPMI-1640+L-allulose, RPMI-1640+D-allulose, RPMI-1640+D-fructose, RPMI-1640+D-allose, and RPMI-1640+D-allitol. The final concentration of the sugar in the medium was adjusted to 10 mM and no sugar was added in the control.
Five-ml portions of a 3.0×10^4 cells/ml cell suspension prepared using RPMI-1640 were seeded in dishes having a diameter of 6 cm (1.5×10^5 cells/dish) and cultured for 24 hours in the RPMI-1640 medium containing 2000 mg/l of D-glucose as a nutrient source. Twenty-four hours later, the media were changed to the culture solutions containing the monosaccharides and rare sugars described above in 2), respectively, followed by culturing for 48 hours.
After culturing for 48 hours, the attached human carcinoma cells were mechanically separated and collected in a Spitz tube together with the culture solution and floating cells. After the supernatant formed by centrifugation (4° C., 1200 rpm, and 5 minutes) was removed to obtain cell pellets alone, 5 ml of a phosphate buffer physiological saline (PBS) was added for the purpose of washing to obtain a cell suspension of the cell pellets. A gain, the resulting cell suspension was centrifuged at 4° C. and 1200 rpm for 5 minutes and the supernatant was removed. To the cell pellets after washing was added 1 ml of pure water to suspend them therein. Ultrasonic disruption (intensity: 40%, 30 seconds) was then performed and the monosaccharide in the disrupted cell suspension was labeled with ABEE, followed by analysis by HPLC. From the area thus obtained, the sugar content in the cells was determined using a calibration curve. With respect to the ketose, two peaks were found after labeling with ABEE so that the sugar content in the cells was determined from the calibration curves of both peaks.

Another data set concerns ACHN tumor. As to the kind of experiment: D-allose concentration in tumor after intraperitoneal injection, ACHN xenograft mouse model. The following applies: ACHN xenograft mice, 400 mg/kg intraperitoneal. Type of data set: in vivo. The procedure: (§1) The experiment of the present example used two human renal cell carcinoma cell lines (Caki-I and ACHN). Each cell was cultured under the wet environment of 37° C. and 5% CO2 by using a RPMI-1640 culture solution (2000 mg D-glucose/L) containing a 10% fetal calf serum, a HEPES buffer, and penicillin-streptomycin.
(§2) With respect to a renal cell carcinoma xenograft mouse model, a 1.0×10^5 cells/ml of a cell suspension was obtained by adjusting the cultured cells with a MEM culture solution and then 0.1 ml of the resulting suspension was injected into the femoral subcutaneous tissue of Female athymic nude mice (BALB/c-nu/nu, 6-week-old). After checking that the tumor volume was 200 mm^3 or more one week after the injection, the mice were provided for the experiment thereafter.
A 400 mg/kg/0.4 mL solution of rare sugar D-allose was prepared using physiological saline and was intraperitoneally injected into the xenograft mouse models of two human renal cell carcinoma cell lines (Caki-I and ACHN) through a 27 G needle. A tumor was enucleated from the mouse before […] administration and 1 hour, 2 hours, and 4 hours after the administration. […] A monosaccharide in the supernatant thus obtained was labeled with ABEE (4-aminobenzoic acid ethyl ester) and the quantitative analysis of D-allose was performed by HPLC (high performance liquid chromatography). […]

For data set [2], the system named is xenograft mouse model made using Caki-I. As to the kind of experiment: Change of tumor volume by intraperitoneal D-allose injection, Caki-I xenograft mouse model. Type of data set: in vivo, mice. The procedure: as §1, §2
(§3) The day when the tumor size of the renal cell carcinoma xenograft mouse models became 200 mm^3 or more was called day 0 and the intraperitoneal injection of a D-allose-containing solution was started from day 1. The solution injected is 0.4 mL of physiological saline or a solution obtained by dissolving 100 mg/kg or 400 mg/kg of D-allose in 0.4 mL physiological saline. The resulting solution was intraperitoneally injected into three groups of mice (Control, 100 mg/kg of D-allose, and 400 mg/kg of D-allose) once a day for 5 weeks in total. The body weight of the mice and the long and short diameters of the tumor were measured over time twice a week. It is to be noted that the tumor volume was obtained as a product of long diameter×short diameter×short diameter of the tumor×0.5. On day 35 after the intraperitoneal injection was started, the tumor as well as the liver and kidney were excised from the mice and provided for the experiment performed thereafter.

For a further data set, the system named is Caki-I tumor tissue. Kind of data set: Tumor tissue histology (necrosis area, nuclear fission), Caki-I xenograft mouse model. Type of data set: in vivo, mice. The following applies: day 35. The procedure: as §1, §2, §3
(§4) The tissue of the excised tumor, kidney, and liver was fixed with a 4% paraformaldehyde phosphate buffer, embedded with paraffin, and sliced into a 4-μm thick section. The resulting sliced section was stained with hematoxylin and eosin and evaluated by a medical specialist in pathology. The influence of D-allose on the tumor tissue was evaluated by a necrosis area (%) and an image of the number of nuclear fissions (Cells/HPF). It is to be noted that the necrosis area was measured using an image recording software Nikon NIS—Elements D and figures after the decimal point were omitted. On the other hand, the number of nuclear fissions was obtained as an average of those of three fields of view and figures after the decimal point were also omitted. The anti-tumor effect of D-allose, more specifically, necrosis area and the number of nuclear fissions in the renal cell carcinoma xenograft mouse model are shown in Table 10.

The next data set relates to ACHN tumor tissue. As to the kind of experiment: Tumor tissue histology (necrosis area, nuclear fission), ACHN xenograft mouse model. In kind it is in vivo, mice. The following applies: day 35. The procedure: as §1, §2, §3, §4
In a further data set the test system is liver tissue. As to the kind of experiment: Liver tissue histology in renal cell carcinoma xenograft mouse models. Type of data set: in vivo. The following applies: xenograft mice, intraperitoneal once a day, day 35; diagnosis by a medical specialist in pathology; FIG. 8. The procedure: as §3, with “On day 35 after the intraperitoneal injection was started, the tumor as well as the liver and kidney were excised from the mice and provided for the experiment performed thereafter.” left out
The tissue of the excised tumor, kidney, and liver was fixed with a 4% paraformaldehyde phosphate buffer, embedded with paraffin, and sliced into a 4-μm thick section. The resulting sliced section was stained with hematoxylin and eosin and evaluated by a medical specialist in pathology. The influence of D-allose on the tumor tissue was evaluated by a necrosis area (%) and an image of the number of nuclear fissions (Cells/HPF). It is to be noted that the necrosis area was measured using an image recording software Nikon NIS—Elements D and figures after the decimal point were omitted. […]

Where [3] appears, read: 100 mg/kg intraperitoneal once a day.
The mark [4] stands for this setting: 400 mg/kg intraperitoneal once a day.

As for `O=C[C@H](O)[C@H](O)[C@H](O)[C@H](O)CO` [D-allose], in data set [1] (PC-3, named sugar added to RPMI-1640 at 10 mM, 48 hours, HPLC after ABEE labeling), the “D-glucose content in cell” value was 3.8 µg. The “Content in cell of the added sugar” value in data set [1] (human, 48 h, 10 mM) was found to be 7.5 µg. In the data set with ACHN tumor (HPLC, FIG. 4), the “D-allose in tumor one hour after intraperitoneal injection” value is reported as “detected”. For the same compound, the “Time after injection at which D-allose concentration in tumor became the highest” value with ACHN tumor (sampled 1, 2, 4 hours) is listed as “two”. Also, the “Tumor volume versus Control group” value in data set [2] (100 mg/kg intraperitoneal once a day, on and after day 31, Mann-Whitney U test) was “significantly smaller than that of the Control group”; in data set [2] (400 mg/kg intraperitoneal once a day, on and after day 16, Mann-Whitney U test) it was “significantly smaller than that of the Control group”. In addition, in data set [2] (400 mg/kg intraperitoneal once a day, on and after day 16), the “Tumor volume versus tumor volume before administration” value is recorded as “significantly smaller than the tumor volume before administration”. Further, the Necrosis area stood at 22% in the data set on Caki-I tumor tissue (setting [3]), 33% with Caki-I tumor tissue (setting [4]), 49% in the data set with ACHN tumor tissue (setting [3]) and 69% in the data set on ACHN tumor tissue (setting [4]). The Nuclear fission was found to be 0.9 Cells/HPF with Caki-I tumor tissue (setting [3]), 1 Cells/HPF in the data set on Caki-I tumor tissue (setting [4]), 1.2 Cells/HPF in the data set with ACHN tumor tissue (setting [3]) and 0.9 Cells/HPF with ACHN tumor tissue (setting [4]). Moreover, the “Influence on the liver tissue” value in the data set on liver tissue was “No influence”.
